From patent US9066947B2, “Indolyl-substituted pyrazino[1,2-b]isoquinolines for cancer treatment” (Everest Biosciences, Inc., priority 2009, dated 2015)

Tests used:
[1] = Basic toxicity study in healthy mice; type: in vivo; details: for cage-side observations (food consumption, daily activities, toxic effect) / histology of livers and kidney: 13 days
Experimental: (§1) For the assessment of toxicity of Substance X, healthy mice were treated with Substance X by intravenous injection at a dose of 100 mg/kg or 200 mg/kg once every other day for 13 days. Body weight of each mouse was measured periodically from Day 1 to Day 13 of the treatment. Cage-side observations including: mortality, moribundity, food consumption and activities were performed once every other day. Blood samples were taken on Day 1 and Day 13 for measurement of blood cell counts. To assess toxicity of Substance X on mice with tumors, mice bearing subcutaneous PC-3 tumors were treated with Substance X at a high dose of 200 mg/kg once every other day for 19 days. Body weight was measured and cage-side observations were performed once every other day. Lymph node, liver, lung, spleen and femurs were removed from each mouse and were examined. Toxicity of Substance X was also assessed in tumor-bearing mice treated with 80 mg/kg of Substance X daily as described above.

[2] = Safety in PC-3 tumor-bearing xenograft mice; type: in vivo; details: PC-3 tumor-bearing mice, 40 mg/kg daily for 30 days
Experimental: as §1
We then tested the high dose of Substance X in PC-3 xenograft mice, thereby mimicking its effect on prostate cancer patients. We generated mouse xenograft of human PC-3 tumors by subcutaneous implantation of tumor cells into nude mice. We further tested safety of the dose of 40 mg/kg which generated significant anti-tumor activity in the xenograft mouse model.

PC-3 tumors [3] = test: PC-3 prostate cancer xenograft mouse model of tumor growth and metastasis; type: in vivo, athymic NMRI nude mice
Description: Athymic NMRI nude mice between 6-8 weeks old (Taconic; Bomholt, Denmark) were used. Prostate cancer xenograft mouse model was created by implanting hormone-independent PC3 tumor cells subcutaneously into athymic nude mice as previously described (Wegiel B, Bjartell A, Tuomela J, et al.: Multiple cellular mechanisms related to cyclin Al in prostate cancer invasion and metastasis. Journal of the National Cancer Institute 100: 10221036, 2008).
PC-3 cells were purchased from American Type Culture Collection (Manassas, V A) and cultured in RPMI-1640 supplemented with 10% Fetal Bovine Serum. PC-3 cells at 1×10^6/per mouse were used. The mice were divided into three groups (6 mice per group). The first group allowed tumors to grow between 170-400 mm^3 in size before starting the treatment. The second group allowed tumors to grow between 550-650 mm^3 in size before starting the treatment. The third group allowed tumors to grow between 700-800 mm^3 in size before starting the treatment. The tumor diameters were measured twice weekly using calipers. The tumor volumes were calculated using an equation of a*(b2/2) where a and b represent the length and width of the tumor, respectively.
The treatment of the compound of Example 1 (also referred to herein as “Substance X”) or PBS containing 5% DMSO (vehicle) as Control was started when tumors reached the desired size as described above. In the first experimental setting, Substance X was administered intravenously once every other day. In the second experimental setting, Substance X was administrated orally once every other day. Tumor growth was assessed periodically as described in Results. The mice were sacrificed after treatment by euthanization via isofluorene inhalation. Lymph node, liver, lung, spleen and femurs were removed from each mouse. Half of the tumor tissues were used for histology and immunohistochemical analysis. For histology analysis, tissues were fixed in 4% paraformaldehyde and embedded in paraffin. The sections were stained with hematoxylineosin (H&E) or imunohistochemical stained with antibodies and analyzed under an optical microscope. The other half of the tissues were used for protein analysis and thus were snapfrozen in liquid nitrogen. The body weights of the mice on the first and last day of the treatment were collected and compared. Tumor invasion and metastasis were examined in various tissues from the sacrificed mice.
For a comparison study, mice with tumors at 190-250 mm^3 in size were treated with the cytotoxic drug Etoposide (Sigma) at a dose of 20 mg/kg via IV injection once every other day. The tumor size was measured as described in the Results. Three mice were treated with Etoposide or the vehicle as Control. The mice were sacrificed and the tissues were collected as described above.

VEGF = test: Immunohistochemical analysis of VEGF expression in PC-3 xenograft tumors; type: in vivo, human; details: versus Control mice (FIG. 5)
Experimental: (§2) FIG. 5: Effect of Substance X on Expression of VEGF and VEGF Receptor 2 Immunohistochemical analysis of VEGF and VEGF receptor 2 was performed in tumors from the Control mice and the mice treated with Substance X. The representative pictures are shown. Tumor sections (Control) or (Substance X) were stained with antibody against human VEGF and VEGF Receptor 2.
(§3) The treatment of the compound of Example 1 (also referred to herein as “Substance X”) or PBS containing 5% DMSO (vehicle) as Control was started when tumors reached the desired size as described above. In the first experimental setting, Substance X was administered intravenously once every other day. […] Tumor growth was assessed periodically as described in Results. […] The sections were stained with hematoxylineosin (H&E) or imunohistochemical stained with antibodies and analyzed under an optical microscope. […]
(§4) Immunohistochemistry on tumor tissues was performed as previously described (Wegiel B, Bjartell A, Ekberg J, Gadaleanu V, Brunhoff C and Persson J L: A role for cyan AI in mediating the autocrine expression of vascular endothelial growth factor in prostate cancer. Oncogene 24: 6385-6393, 2005) by using antibodies to human CD-31 (Dako, Goistrup, Denmark A/S). […] For analysis of tumor angiogenesis, tumor sections stained with antibody against CD3I were examined and quantified. […]

VEGF receptor 2 = test: Immunohistochemical analysis of VEGF receptor 2 expression in PC-3 xenograft tumors; type: in vivo, human; details: versus Control mice (FIG. 5)
Experimental: as §2, §3, §4

CD31 = test: Quantification of angiogenesis by CD31 immunohistochemistry in PC-3 xenograft tumors; type: in vivo, human; details: versus Control tumors (FIG. 6)
Experimental: B. Immunohistochemical analysis of tumors from the Control mice and mice treated with Substance X for the expression of CD31. Tumor sections (Control) or (Substance X) were stained with antibody against CD31. (B). Regions of high vascular density at centre or the edge areas within the tumors were examined. The number of CD31-positive pixels per microscopic field was recorded. At least two sections per tumor and three views per section were determined. The statistical T-test was performed and was two-sided and P value less than 0.05 was considered to be statistically significant, P value less than 0.01 is labelled as two asterisks.
Immunohistochemistry on tumor tissues was performed as previously described (Wegiel B, Bjartell A, Ekberg J, Gadaleanu V, Brunhoff C and Persson J L: A role for cyan AI in mediating the autocrine expression of vascular endothelial growth factor in prostate cancer. Oncogene 24: 6385-6393, 2005) by using antibodies to human CD-31 (Dako, Goistrup, Denmark A/S). Antirabbit peroxidase-conjugated secondary antibodies were applied. Diaminobenzidine colorimetric reagent solution (Dako) was used. […] For analysis of tumor angiogenesis, tumor sections stained with antibody against CD3I were examined and quantified. […] The number of CD31-positive pixels per microscopic field was recorded. At least two sections per tumor and three views per section were determined.

[4] = test system: PC-3 prostate cancer cells; test: Cell proliferation assay (trypan blue viable cell count) and IC50 determination; type: cell-based, human; details: PC-3 cells
Experimental: All new synthesized compounds and Etoposide were first dissolved in 100% DMSO at initial concentration of 100 mM, and then diluted at final concentration of 200 uM in culture medium. Commercial form of Avastin (25 mg/ml) was diluted to appropriate concentrations in culture medium.
Hormone-independent and metastatic PC-3 prostate cancer cells were purchased from the American Type Culture Collection (Manassas, Va., USA) and cultured in RPMI-1640 supplemented with 10% fetal bovine serum. Etoposide was purchased from Sigma, Avastin from Roche.
For cell counting a total of 6×10^4 cells at a density of 0.3×10^6/ml were seeded in 96-well plate. The cells were treated with compounds, Etoposide or Avastin as positive controls at 1 uM, 5 uM, 10 uM, 20 uM, 50 uM, 100 uM for 48 hours. For Avastin 5 uM, 20 uM and 50 uM concentrations were used. The cells were labeled with trypan blue and the viable cells were quantified.

PC-3 tumors [5] = test: PC-3 prostate cancer xenograft mouse model of tumor growth and metastasis; type: in vivo, athymic NMRI nude mice; details: tumors 500-600 mm3 at start, 40 mg/kg intravenous injection, day 20 (FIG. 2)
[6] = healthy mice, 100 mg/kg i.v. once every other day

With `CN1CC(=O)N2[C@H](c3c[nH]c4ccccc34)c3cc4c(cc3C[C@H]2C1=O)OCO4` [Substance X, (5S,9aS)-5-(1H-Indol-3-yl)-8-methyl-7,8,9a,10-tetrahydro-5H-1,3-dioxa-5a,8-diaza-cyclopenta[b]anthracene-6,9-dione] the “cage-side observations (food consumption, daily activities, toxic effect)” value (from here on “cage-side observations”) ([1]; 200 mg/kg once every other day) was “no abnormality on food consumption and daily activities, or any observable toxic effect”, the “histology of livers and kidney” value ([1]; 200 mg/kg once every other day) was “no abnormality in histology” and the body weights ([1]; 200 mg/kg once every other day, 13 days (FIG. 1B)) was “steady throughout the study period”. The “cage-side observations” value [1, 6] was “no abnormality on food consumption and daily activities, or any observable toxic effect”, the “histology of livers and kidney” value [1, 6] was “no abnormality in histology” and the “change in body weight” value ([1]; healthy mice, 100 mg/kg i.v. once every other day, 13 days (FIG. 1A)) was “no significant change in body weight”. For the same compound, the body weights [2] was “remained constant throughout the period of treatment”, the “cage-side observations” value [2] was “no abnormality on food consumption and/or daily activities, or any other observable toxic effect” and the “histology of livers and kidney” value [2] was “no abnormality in histology”. For the same compound, the “tumor size after switch to oral administration” value (PC-3 tumors [3]; 40 mg/kg i.v. for 20 days, from day 21 40 mg/kg oral, versus continuous i.v.) was “slightly larger tumor size than the mice treated by continuous intravenous injection”, the “tumor growth (large and invasive tumors, longer treatment)” value (PC-3 tumors [3]; 40 mg/kg intravenous injection for 30 days) was “inhibited throughout the treatment period and the tumors shrank significantly at the end of the treatment” and the “infiltration of tumor cells into secondary sites (metastasis)” value (PC-3 tumors [3]; 40 mg/kg, end of study, histology and immunohistochemical analysis) was “no infiltration of tumor cells into secondary sites could be detected”. The “size of tumors in whole-tumor histology sections” value (PC-3 tumors [3]; VEGF receptor 2 stained sections, versus Control mice (FIG. 6A)) was “smaller than that from the Control mice”, the oral bioavailability (PC-3 tumors [3]; inferred from tumor size after oral versus intravenous 40 mg/kg) was “orally bioavailable, yet the oral bioavailability is lower than intravenous injection” and the tumor growth (PC-3 tumors [3]; tumors 190-240 mm3 at start, 20 mg/kg intravenously, 21 days) was “tumor shrank”. For the same compound, the “tumor growth, oral administration throughout” value (PC-3 tumors [3]; tumors 300-350 mm3 at start, 40 mg/kg oral (FIG. 3)) was “able to inhibit the tumor growth, although the effect was not as strong as intravenous injection”, the “tumor growth, comparison of Etoposide and Substance X” value (PC-3 tumors [3]; tumors about 250 mm3, IV once every other day for 14 days, Etoposide 20 mg/kg, Substance X 40 mg/kg (FIG. 4)) was “stronger inhibitory effect on tumors as compared to Etoposide” and the “expression of VEGF in tumors” value (VEGF) was “significantly down-regulated”. For the same compound, the “expression of VEGFR2 in tumors” value (VEGF receptor 2) was “significantly down-regulated”, the “CD31 expression and number of CD31-expressing vessels in tumors” value (CD31) was “statistically significant decrease” and the IC50 ([4]; Homo sapiens, viable cells after 48 hours, read-out: IC50 for cell growth inhibition) was 30 µM. The “concentration from which statistically significant cell growth inhibition started” value ([4]; 48 hours) was 5 µM and the “tumor growth (large tumors)” value (PC-3 tumors [5]) was “did not grow but showed a slight decrease in size”.
